Assay results as given in patent EP0199291A1 (priority 1985, dated 1986).
Like-named read-outs stand apart in the source and are kept apart here.

Key:
TNP-C3H = details: for cytotoxische Aktivität (% 51Cr-Freisetzung): Stimulans und Target TNP-C3H, 1 x 10^-2 mol/l, 5 days
Procedure: (§1) 20 Millionen Responderzellen (üblicherweise C3H Milzzellen)wurden mit 1×10^6 bestrahlten (1500 rad) allogenen oder trinitrophenylierten syngenen Stimulatorzellen in einem Gesamtvolumen von 4,5 ml Kulturmedium (RPMI 1640, GIBCO Medium supplementiert mit 10mM L-Gutamin (GIBCO), Streptomycin/Penicillin (GIBCO), Streptomycin/ Penicillin (GIBCO; 100 units/ml), 0,5 % HEPES (GIBCO), 10% fötalem Kälberserum (GIBCO) und 3×10^-5 Mol/l 2-Mercaptoäthanol) 5 Tage bei 37°C in 5% CO2 incubiert. Responder-und Stimulatorzellen waren Milzzellen.
(§2) Die Kulturen wurden nach 5 Tagen auf cytotoxische Aktivität gegen Con A-aktivierte allogene oder trinitrophenylierte syngene Milzlynphoblasten in einem 4-Stunden 51Cr-Release assay in bekanntem Weise getestet.
(§3) Der Effekt in vitro (mittlere und rechte Zeichnung der Fig. 1) wurde wie folgt bestimmt: • C3H Milzzellen (2 x 10^7) wurden mit 1 x 10^6 bestrahlten und Trinitrophenylen-behandelten C3H Milzzellen (Mitte) oder 1 x 10^6 bestrahlte C57BL/6 Milzzellen (rechts) und mit den angegebenen Endkonzentrationen von Ornithin in 4,5 ml Kulturen 5 Tage inkubiert. Die cytotoxische Aktivität gegen die entsprechenden Targetzellen wurde nach 5 Tagen getestet.
(§4) C3H Milzzellen (2 x 10^7) wurden mit 1 x 10^6 bestrahlten und Trinitrophenylen-behandelten C3H Milzzellen (links) oder 1 x 10^6 bestrahlten C57BL/6 Milzzellen (rechts) in 4,5 ml Kulturen 5 Tage inkubiert. […] Die Abszisse zeigt die Endkonzentration von Ornithin in der Kultur. Die cytotoxische Aktivität gegen die entsprechenden Targetze1len wurde nach 5 Tagen bei Angreifer: Ziel-Zellen-Verhältnissen von 25:1, 5:1 und 1:1 untersucht. Figur 3 zeigt die relative cytotoxische Aktivität beim Angreifer: Ziel-Zellen-Verhältnis 25:1. (Die Kontrollantwort ohne Ornithin zeigte 54% (links) bzw. 50% (rechts) ^51Cr-release).
(§5) Die Ergebnisse geben die cytotoxische Aktivität (% ^51Cr-Freisetzung) gegen homologe Targetzellen nach 5 Tagen bei Angreifer:Targetzel len-Verältnissen von 25:1, 5:1 und 1:1 an.

C57BL/6 = details: Stimulans und Target C57BL/6, 1 x 10^-2 mol/l, 5 days
Procedure: as §1, §2, §3, §4, §5

[1] = tested on: con-A-aktivierte C3H Milzzellen; details: 9 x 10^-3 mol/l; Con A 5 µg/ml; 24 h (Fig. 5)
Procedure: (§6) Die IL 2 Titer wurden mit der IL 2 abhängigen W-2 T-Zelllinie in bekannter Weise bestimmt.
(§7) Die resultierenden Überstände wurden dann durch Zentrifugation isoliert und auf Interleukin-2 und Interferon- Aktivität getestet, wie im Methodenteil beschrieben.
Ansteigende Konzentrationen von Ornithin wurden Kulturen von con-A-aktivierten Konzentrationen von Ornithin C3H Milzzellen (10^7 Zellen + 5 µg con-A pro ml) zugesetzt. Die erhaltenen Überstände wurden 24 h später isoliert und auf Interleukin-2 und Interferonaktivität getestet.

[2] = tested on: IL 2 abhängige W-2 T-Zelllinie; details: control solutions with increasing amounts in culture medium
Procedure: as §6
Ansteigende Konzentrationen von Ornithin wurden Kulturen von con-A-aktivierten Konzentrationen von Ornithin C3H Milzzellen (10^7 Zellen + 5 µg con-A pro ml) zugesetzt. Die erhaltenen Überstände wurden 24 h später isoliert und auf Interleukin-2 und Interferonaktivität getestet. […] C3H Milzzellkulturen mit l ug/ml con-A sowie allogene "Genischte-Lymphozyten-Kulturen" mit 10^7 nicht-bestrahltenC3H Milzzellen' plus 10^7 nicht- bestrahltenC57BL/6 Milzzellen wurden eben- falls mit steigenden Konzentrationen von Ornithin angesetzt.

[3] = tested on: PMA-aktivierte EL-4 Thymomzellen; details: same concentrations as in Fig. 5
Procedure: as §6
Die Überstände werden aus einer IL-2 produzierenden EL-4 Thymom-Sublinie nach Induktion mit Phorbolmyristinacetat (PMA) in bekannter Weise erhalten. Es wurden 10^6 EL-4 Zellen pro ml zusammen mit 10 ng/ml PMA (SIGMA) 48 h inkubiert. Die Überstände wurden gesammelt und bei -20°C gefroren gelagert.
as §7

[4] = Angreifer:Targetzellen 1:1, control without additive 4,8
[5] = Angreifer:Targetzellen 5:1, control without additive 17,7
[6] = Angreifer:Targetzellen 25:1, control without additive 33,5
[7] = Angreifer:Targetzellen 1:1, control without additive 16,3
[8] = Angreifer:Targetzellen 5:1, control without additive 32,0
[9] = Angreifer:Targetzellen 25:1, control without additive 54,9
[10] = summary statement, see Tabelle I

SMILES | Hemmwirkung auf die Aktivierung cytotoxischer T-Lymphozyten (TNP-C3H) | cytotoxische Aktivität (% 51Cr-Freisetzung) (C57BL/6; [4]) | cytotoxische Aktivität (% 51Cr-Freisetzung) (C57BL/6; [5]) | cytotoxische Aktivität (% 51Cr-Freisetzung) (C57BL/6; [6]) | cytotoxische Aktivität (% 51Cr-Freisetzung) (TNP-C3H; [7]) | cytotoxische Aktivität (% 51Cr-Freisetzung) (TNP-C3H; [8]) | cytotoxische Aktivität (% 51Cr-Freisetzung) (TNP-C3H; [9]) | Hemmwirkung auf die Aktivierung cytotoxischer T-Lymphozyten (TNP-C3H; [10]) | further results
NCCCCN [Putrescin] | nicht zu beobachten | – | – | – | – | – | – | – | –
NCCCC[C@H](N)C(=O)O [L-Lysin] | – | 9,0% | 19,1% | 41,7% | 21,5% | 39,9% | 60,7% | nicht zu beobachten | –
C[C@H](N)C(=O)O [L-Alanin] | nicht zu beobachten | – | – | – | – | – | – | – | –
N[C@@H](Cc1c[nH]cn1)C(=O)O [L-Hystidin, L-Histidin] | – | 5,1% | 11,4% | 24,5% | 11,1% | 27,8% | 48,5% | nicht zu beobachten | –
NCCC[C@H](N)C(=O)O [L-Ornithin] | – | – | – | – | – | – | – | – | Effekt auf die Produktion von IL-2 [1]: keinen wesentlichen Effekt; Interleukin-2-Aktivität (of the substance itself) [2]: keine Interleukin-2 oder Interferon-Aktivität; Interleukin-2-Produktion von PMA-aktivierten EL-4 Thymomzellen [3]: nicht supprimiert
